Patent US20240409517A1, “ORGANIC COMPOUNDS” (GIVAUDAN SA, priority 2021, published 2024)

How the values were obtained:
Assay type in all cases: in vivo
[1] = tested on: sensory panel; experiment: Effect on mayonnaise, sensory panel; details: commercially available mayonnaise, 70 ppm compound
Description: Samples of commercially available mayonnaise with and without addition of the compound of example 1 have been compared by a sensory panel.

[2] = tested on: sensory panel; experiment: Salt enhancement in 0.3% NaCl solution at different concentrations, sensory panel
[3] = tested on: sensory panel; experiment: Effect on vegan cheese, sensory panel; details: vegan cheese with 0.2% cheese parmesan natural flavor, 70 ppm compound
Description: Samples of vegan cheese comprising 0.2% cheese parmesan natural flavor have been compared with and without the compound of example 1 by a sensory panel.

[4] = tested on: sensory panel; experiment: Salt enhancement in 0.5% NaCl aqueous solution, sensory panel; details: 0.5% NaCl aq. solution with 50 ppm compound, compared with 0.5% NaCl alone
Description: The solutions were tasted by a sensory panel. Solution A was describes as “salty”.
Aqueous solutions comprising 0.5% NaCl and 50 ppm of the compounds of example 2-21, respectively, have been prepared and tasted by a sensory panel in comparison with an aqueous solution comprising 0.5% NaCl.
Aqueous solutions comprising 0.5% NaCl and 50 ppm of the compounds of example 38-58, respectively, have been prepared and tasted by a sensory panel in comparison with an aqueous solution comprising 0.5% NaCl.

[5] = tested on: sensory panel; experiment: Effect on processed meat, sensory panel; details: 70 ppm compound
Description: Samples of processed meat with full salt flavor and sodium reduced flavor have been tasted by a sensory panel with and without the compound of example 1.
Sample 1 was comprising a full salt flavor base.
Sample 2 was comprising a full salt flavor base and 70 ppm of the compound of example 1.
Sample 3 was comprising a salt reduced (33.3%) flavor base and a saltiness flavor modulator.comprising KCl.
Sample 4 was comprising a salt reduced (33.3%) flavor base, a saltiness flavor modulator.comprising KCl, and 70 ppm of the compound of example 1.

[6] = tested on: sensory panel; experiment: Taste in water by a sensory panel
[7] = tested on: sensory panel; experiment: Effect on cheese sauce, sensory panel; details: 50 ppm compound
Description: The effect of the compound of example 1 on cheese sauce was explored. Therefore, a cheese sauce has been compared by a sensory panel with a sample of the sauce further comprising 50 ppm of the compound of example 1.

[8] = tested on: sensory panel; experiment: Effect on corn curls with cheese flavor, sensory panel; details: 70 ppm compound
Description: Corn curls with cheese flavor with and without addition of the compound of example 1 have been compared by a sensory panel.

[9] = tested on: sensory panel; experiment: Effect on soy based vegan burger, sensory panel; details: 70 ppm compound
Description: Soy based vegan burgers with and without the compound of example 1 have been tasted by a sensory panel.

[10] = tested on: sensory panel; experiment: Effect on potato chips, sensory panel; details: potato chips with 1.5% salt, 70 ppm compound
Description: Potato chips with 1.5% salt have been tasted by a sensory panel with and without additional compound of example 1.

[11] = tested on: sensory panel; experiment: Bitter masking in 0.3% KCl solution, sensory panel; details: 0.3% KCl with 50 ppm compound, compared with 0.3% KCl alone
Description: (§1) The solutions were tasted by a sensory panel.

[12] = tested on: sensory panel; experiment: Effect on model broth base, sensory panel; details: model broth base with 0.3% NaCl, 50 ppm compound
Description: A model broth base, comprising 0.3% of NaCl was compared with a sample further comprising 50 ppm of the compound of example 1.
as §1

[13] = tested on: sensory panel; experiment: Umami enhancement in savoury model solution (NaCl, MSG, Ribotides), sensory panel; details: 0.5% NaCl, 0.03% MSG, 0.007% Ribotides with 50 ppm compound, compared with solution A without compound
Description: The solutions were tasted by a sensory panel. Solution A is a model solution for savoury taste, containing MSG (monosodium glutamate) and Ribotides (IMP/GMP, 50/50 mixture) as savoury taste enhancer.
Two aqueous solutions have been prepared: • A) 0.5% NaCl, 0.03% MSG, 0.007% Ribotides, and • B) 0.5% NaCl, 0.03% MSG, 0.007% Ribotides and 50 ppm of the compound of example 38-58, respectively.

O=C(/C=C/c1c[nH]cn1)NCCc1c[nH]cn1 [Example 1, (2E)-3-(1H-imidazol-4-yl)-N-[2-(1H-imidazol-4-yl)ethyl]prop-2-enamide]
taste versus pure mayonnaise [1]: instant tingly salty with a mineral linger and enhanced acidity | upper level at which the salt enhancing effect was perceived [2]: up to 200 ppm | salt enhancement in 0.3% NaCl solution ([2]; 1 ppm or higher): a salt enhancing effect, providing a more lingering, mineralic and fuller salt taste | salt enhancement in 0.3% NaCl solution ([2]; below 1 ppm): No salt enhancement was perceived | taste versus vegan cheese without compound [3]: more salty and mineral, and the overall taste is lifted | salty taste versus 0.5% NaCl solution [4]: more salty with a mineralic note | taste of processed meat, sample 2 versus sample 1 ([5]; full salt flavor base): more salty and mineral | taste of processed meat, sample 4 versus sample 1 ([5]; salt reduced (33.3%) flavor base with saltiness flavor modulator comprising KCl): improved salt-peak, increased salinity, prolonged saltiness, significantly reduced bitterness and astringency, and increased salivation | taste effect in water ([6]; 50 ppm or higher, noticeable up to 1000 ppm): slight effect of mouth drying | taste effect in water ([6]; up to 40 ppm): no effect was noticed | taste as such in water ([6]; up to 1000 ppm): no taste as such was perceived, in particular no saltiness | taste versus plain cheese sauce [7]: more mineral and salty, with a mineralic linger, and having a natural aged cheese character | taste versus corn curls without compound [8]: more salty, lingering and mineralic | taste versus vegan burger without compound [9]: more salty, having a mineral linger, contributing well to the perception of a burger | taste versus potato chips without compound [10]: a higher salty impact and a lingering effect | bitter and salty taste versus 0.3% KCl solution [11]: less bitter and more salty and mineral | acidity of the broth base [12]: The sharp acidity of the broth base was reduced | taste versus model broth base [12]: more mineral and salty | saltiness and umami versus savoury model solution [13]: strong boost of saltiness and umami
